The values below come from US11633415B2, “Compounds and methods useful for treating or preventing cancers” (priority 2017, dated 2023).

pIC50, pKd: −log10 of the molar value. Like-named read-outs stand apart in the source and are kept apart here.

The test system of assay [1] is colorectal carcinoma cell line HT29. The experiment in a line: Cell viability assay, HT29. The settings on record: Homo sapiens, HT-29; HT29, 72 hours from plating (48 hours from compound administration). The format is cell-based. The procedure: (§1) Cell viability assays were conducted against colorectal carcinoma cell line HT29. Cells were plated in wells and at 24 hours after plating, compounds were added to determine their effect on cell viability at various dosages. After 48 hours from compound administration, the cell viability was determined and the IC50 values were calculated. […] FIG. 4B illustrates the results of another cell viability measurement and IC50 value for Compound 1 assessed by ATP abundance on HT29 at 5 days.

Assay [2] has as its target GST-tagged full-length human CK1α (Homo sapiens (Human), UniProt P48729). Put plainly: Kinase enzymatic assay, mobility shift on LabChip system (AC50). The format is biochemical. The settings on record: mean AC50; 5 μM ATP; 1 μM Profiler Pro FL-Peptide 16 substrate. The procedure: (§2) Enzymatic assays were performed using a mobility shift assay on the LabChip system. Purified kinase protein was incubated with ATP, substrate, and assay buffer (20 mM Hepes—pH 7.5; 5 mM MgCl2, and 0.01% Triton X-100). The assay reaction was initiated with 5 μM ATP and with each compound present. Compounds were tested at the KM,ATP for the protein target (GST-tagged full-length human CK1α, available from Carna Biosciences, Japan) or over a range of ATP concentrations between 5 μM and 9 μM. […] AC50 values were determined using phosphorylated and unphosphorylated substrates.

The subject of assay [3] is HT-29. Put plainly: Cell viability by ATP abundance at 5 days (Cell Titer Glo). It is filed as cell-based. The procedure: In addition to its role as a target in hematologic malignancies, CSNK1A1 expression is also essential to certain epithelial cancer cell lines. […] Results from each independent RNA interference construct were summarized into a single gene-level score, and the colorectal distribution of sensitivities was evaluated against the other lineages by the Mann-Whitney test as shown in FIG. 4A. […] Cell viability was assessed by ATP abundance at 5 days using the Cell Titer Glo assay.
as §1

Assay [4] deals with more than 450 kinase assays. Put plainly: Kinome-wide profiling using the Kinomescan assay. It is filed as binding. The text has this: (§3) The Kinomescan assay is a site-directed small molecule competition binding assay to quantitatively measure interactions between test compounds and more than 450 kinase assays. The assay employs DNA-tagged kinase proteins and a bead-immobilized kinase ligand. Active test compounds compete with the immobilized ligand and decrease the amount of bead-bound kinase. The assay result is detected using a multiplex quantitative PCR approach.

In assay [5] the target is T1, CSNK1A1 (Homo sapiens (Human), UniProt P48729). Put plainly: Kinomescan competition binding assay, confirmatory Kd. From the text: The Kinomescan assay is a site-directed small molecule competition binding assay to quantitatively measure interactions between test compounds and more than 450 kinase assays. The assay employs DNA-tagged kinase proteins and a bead-immobilized kinase ligand. […] The assay result is detected using a multiplex quantitative PCR approach.

In assay [6] the target is T1, CSNK1A1. The experiment in a line: Kinase enzymatic IC50 (Carna Biosciences mobility shift assay). It is filed as biochemical. The protocol:
as §2

The target of assay [7] is CSNK1D (Homo sapiens (Human), UniProt P48730). Put plainly: Kinomescan competition binding assay, confirmatory Kd. The settings on record: confirmatory testing.
Text: as §3

Assay [8] has as its target insulin receptor kinase (Homo sapiens (Human), UniProt P06213). The settings on record: range stated jointly for PKA and insulin receptor kinase; cited from earlier work.
Assay [9] deals with protein kinase A (PKA). The settings on record: range stated jointly for PKA and insulin receptor kinase; cited from earlier work.
The mark [10] stands for this setting: Table 1, CSNK1A1 inhibitors, read-out: IC50.

T1 sequence (P48729 whole entry): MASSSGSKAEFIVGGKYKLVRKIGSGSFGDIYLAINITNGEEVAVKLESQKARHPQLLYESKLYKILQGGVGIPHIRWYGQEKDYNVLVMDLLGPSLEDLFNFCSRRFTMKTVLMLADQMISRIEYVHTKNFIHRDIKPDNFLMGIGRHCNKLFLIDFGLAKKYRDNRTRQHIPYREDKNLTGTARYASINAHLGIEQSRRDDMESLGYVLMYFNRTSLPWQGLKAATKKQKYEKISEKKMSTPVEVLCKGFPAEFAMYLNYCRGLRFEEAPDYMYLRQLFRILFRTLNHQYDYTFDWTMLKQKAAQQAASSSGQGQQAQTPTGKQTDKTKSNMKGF
GST-tagged full-length human CK1α, sequence (P48729 whole entry): as above
CSNK1D, sequence (P48730 whole entry): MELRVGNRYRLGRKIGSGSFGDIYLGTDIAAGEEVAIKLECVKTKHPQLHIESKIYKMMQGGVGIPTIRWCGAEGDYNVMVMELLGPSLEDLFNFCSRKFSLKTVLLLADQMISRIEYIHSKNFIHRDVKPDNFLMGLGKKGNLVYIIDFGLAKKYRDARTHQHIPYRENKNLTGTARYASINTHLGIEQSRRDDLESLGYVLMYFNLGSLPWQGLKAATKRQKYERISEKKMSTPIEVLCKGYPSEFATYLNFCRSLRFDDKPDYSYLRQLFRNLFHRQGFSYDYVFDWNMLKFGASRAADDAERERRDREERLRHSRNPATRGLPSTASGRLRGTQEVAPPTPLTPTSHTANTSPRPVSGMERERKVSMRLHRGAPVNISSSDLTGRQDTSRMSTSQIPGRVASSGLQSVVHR
insulin receptor kinase, sequence (P06213 28-1382): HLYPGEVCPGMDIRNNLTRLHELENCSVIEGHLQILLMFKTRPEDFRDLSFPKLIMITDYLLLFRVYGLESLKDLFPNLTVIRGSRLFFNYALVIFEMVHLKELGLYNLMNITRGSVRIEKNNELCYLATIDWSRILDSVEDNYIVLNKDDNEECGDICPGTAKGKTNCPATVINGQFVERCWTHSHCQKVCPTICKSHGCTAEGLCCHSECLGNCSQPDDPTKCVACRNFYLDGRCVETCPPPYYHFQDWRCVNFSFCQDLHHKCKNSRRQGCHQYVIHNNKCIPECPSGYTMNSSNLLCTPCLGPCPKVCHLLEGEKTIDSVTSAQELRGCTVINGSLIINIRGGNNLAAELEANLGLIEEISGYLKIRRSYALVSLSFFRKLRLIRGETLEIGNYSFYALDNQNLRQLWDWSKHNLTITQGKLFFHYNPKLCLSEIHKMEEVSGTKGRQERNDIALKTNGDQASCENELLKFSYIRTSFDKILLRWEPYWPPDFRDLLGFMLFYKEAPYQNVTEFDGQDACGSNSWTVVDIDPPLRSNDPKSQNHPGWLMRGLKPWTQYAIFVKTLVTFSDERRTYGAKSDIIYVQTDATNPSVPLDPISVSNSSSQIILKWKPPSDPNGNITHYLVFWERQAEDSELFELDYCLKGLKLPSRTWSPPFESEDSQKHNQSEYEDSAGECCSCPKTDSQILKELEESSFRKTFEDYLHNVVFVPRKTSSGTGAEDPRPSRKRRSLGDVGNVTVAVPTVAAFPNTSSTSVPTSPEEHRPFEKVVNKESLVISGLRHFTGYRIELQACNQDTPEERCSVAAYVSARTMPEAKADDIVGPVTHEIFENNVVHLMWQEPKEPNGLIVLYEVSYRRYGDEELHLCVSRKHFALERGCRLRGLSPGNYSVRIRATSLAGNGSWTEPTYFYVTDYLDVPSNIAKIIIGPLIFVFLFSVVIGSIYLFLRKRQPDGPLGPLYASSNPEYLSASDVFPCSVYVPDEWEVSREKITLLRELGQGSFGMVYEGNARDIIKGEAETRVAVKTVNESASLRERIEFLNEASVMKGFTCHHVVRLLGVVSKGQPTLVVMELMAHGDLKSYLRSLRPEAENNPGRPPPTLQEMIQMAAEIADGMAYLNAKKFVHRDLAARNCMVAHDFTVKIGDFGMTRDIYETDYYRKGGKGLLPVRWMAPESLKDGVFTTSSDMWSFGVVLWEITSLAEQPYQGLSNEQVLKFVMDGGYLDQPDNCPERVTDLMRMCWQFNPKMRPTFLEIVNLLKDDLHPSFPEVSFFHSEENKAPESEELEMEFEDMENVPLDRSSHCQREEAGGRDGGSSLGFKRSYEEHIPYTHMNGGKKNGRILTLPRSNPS

A word on the IC50: it is the concentration that gives 50% inhibition. Low readings indicate inhibition by little substance, high ones a need for much substance. The AC50 is the concentration at which the activity in the assay is half-maximal. Consider `N#C/C(C(=O)OCC1CCCCC1)=C1/Nc2ccc(-c3ccc(O)cc3)cc2N=C1N1CCNCC1`, for which the IC50 in assay [1] amounted to 0.472 µM. Further, the AC50 in assay [2] came out at 0.013 µM.
In the case of `CN1CCN(c2nc3ccccc3nc2C(C#N)C(=O)OC2CCCCC2)CC1` (stereo not shown) [drawing 113], in [1], it took 10000 µM to reach half-maximal inhibition (IC50). In assay [2], the AC50 stood at 3.5 µM.
Compound `N#CC(C(=O)OCC1CCCCC1)c1nc2ccccc2nc1N1CCNCC1` (stereo not shown) gave an IC50 in assay [1] of 3.78 µM. Also, the AC50 in assay [2] was found to be 0.02 µM.
Broadly, the pKd is the Kd on a negative log10 scale, so that one unit is a factor of ten. A lower pKd goes with a high Kd. One may read the pIC50 as −log10 of the IC50, conventionally taken in molar units. Turning to `CCN1CCN(c2nc3ccccc3nc2C(C#N)C(=O)OC2CCCCC2)CC1` (stereo not shown) [compound 1, cyclohexyl 2-cyano-2-(3-(4-ethylpiperazin-1-yl)quinoxalin-2-yl)acetate], the “cell viability of HT-29” value in assay [3] is recorded as “inhibited”. Further, the “binding specificity in kinome-wide profiling” value in assay [4] (450 kinases tested at a single dose of 10 μM) is “remarkable specificity for compound binding to CSNK1A1”. Moreover, the “number of kinases bound” value in assay [4] (out of over 400 kinases tested) was “six”. Moreover, the values for the pKd in assay [5] and in assay [7] were 5.77 and 5.49, respectively. Also, the values for the pIC50 in assay [6] and in assay [6] (setting [10]) were 5.00 and 4.89, respectively.
Regarding `N#C/C(C(=O)OCC1CCCCC1)=C1/Nc2ccc(-c3ccc(F)cc3)cc2N=C1N1CCNCC1`, the IC50 in assay [1] is 1.78 µM. Also, the AC50 in assay [2] stood at 0.074 µM.
The like results for `N#C/C(C(=O)OCC1CCCCC1)=C1/Nc2ccc(-c3ccccc3F)cc2N=C1N1CCNCC1` were, in that order, 1.9 µM and 0.043 µM.
In turn, `N#C/C(C(=O)OCC1CCCCC1)=C1/Nc2ccc(-c3cccc(F)c3)cc2N=C1N1CCNCC1` yielded an IC50 in assay [1] of 2.31 µM. For the same compound, the AC50 in assay [2] amounted to 0.108 µM.
Consider `Nc1ncnc2c1c(I)cn2[C@@H]1O[C@H](CO)[C@@H](O)[C@H]1O` [5-iodotubercidin, 5-Iodo-7-β-D-ribofuranosyl-7H-pyrrolo[2,3-d]pyrimidin-4-amine, reference compound], for which the pIC50 is 4.55 to 6.40 in assay [8]; 4.55 to 6.40 in assay [9]; 6.54 in assay [6] (setting [10]); 6.54 in assay [6] (known inhibitors, background text (rounded Table 1 values), read-out: IC50 against CSNK1A1).
`CCC(CC)COC(=O)C(C#N)c1nc2ccccc2nc1N1CCNC(C)(C)C1` (stereo not shown) gave an IC50 in assay [1] of 2.13 µM. For the same compound, the AC50 in assay [2] worked out at 0.159 µM.
